{
  "source": "patent US8133912B2",
  "about": "(priority 2006, dated 2012)",
  "key": {"mouse": {"system": "mouse", "details": "in vivo, po; cited from earlier work"}, "cell growth": {"system": "cell growth", "format": "cell-based"}, "[1]": {"assay": "resolvability (solubility) in ultrapure water", "details": "5 mg scale in 50 μL ultrapure water, stirred"}},
  "data": [
    {"substance": "tetramethyl arsenic [TeMA]", "values": [
      {"measurement": "LD50 (50% Lethal dose)", "setting": "mouse", "result": 0.9, "unit": "g/kg"},
      {"measurement": "IC50 (50% Growth inhibition)", "setting": "cell growth", "result": 8, "unit": "mg/mL"}
    ]},
    {"substance": "methyl aquocobyrinic acid sodium perchlorate", "values": [
      {"measurement": "resolvability to water", "setting": "[1]", "result": "No precipitate occurred"}
    ]},
    {"substance": "methyl aquocobyrinic acid heptamethyl ester perchlorate [hydrophobic vitamin B12]", "values": [
      {"measurement": "resolvability to water", "setting": "[1]", "result": "not completely dissolved"}
    ]}
  ]
}
